By IC50 is commonly meant the point on the concentration scale where inhibition reaches its midpoint. One may read the inhibition as the change of the read-out against control, counted positive when it falls. Read a high inhibition as a response far below the control.

What all share (assay type): cell-based
The subject of test [1] is PBMCs. Description: LPS-induced TNFα/IL-8 release in PBMC cells. Particulars: Homo sapiens, assay (b), read-out: IC50 Values for Inhibition of Cytokine Release PBMCs IL-8. The gist of the method:
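Healthy-donor PBMCs isolated by density gradient were pretreated with compound for 2 h, then stimulated with 1 ng/mL LPS (E. coli 0111:B4) for 24 h at 37° C., 5% CO2. IL-8 and TNFα in supernatants measured by sandwich ELISA.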

For test [2], the system named is PBMCs. Put plainly: IL-2 and IFN gamma release in CD3/CD28 stimulated PBMC cells. Conditions: Homo sapiens, assay (c). How it is done:
PBMCs from healthy subjects are separated from whole blood using a density gradient (Lymphoprep, Axis-Shield Healthcare). Cells are added to a 96 well plate pre-coated with a mixture of CD3/CD28 monoclonal antibodies (0.3 μg/mL eBioscience and 3 μg/mL BD Pharmingen respectively). Compound at the desired concentration is then added to the wells and the plate left for 3 days under normal tissue culture conditions. […] The IC50 is determined from the dose response curve.

Test [3] concerns PBMCs. Put plainly: Cell mitosis assay in PBMCs. Conditions: Homo sapiens, PBMC, 5 μg/mL. How it is done: Peripheral blood mononucleocytes (PBMCs) from healthy subjects are separated from whole blood (Quintiles, London, UK) using a density gradient (Histopaque®-1077, Sigma-Aldrich, Poole, UK). The PBMCs (3 million cells per sample) are subsequently treated with 2% PHA (phytohaemagglutinin, Sigma-Aldrich, Poole, UK) for 48 hr, followed by a 20 hr exposure to varying concentrations of test compounds. At 2 hr before collection, PBMCs are treated with demecolcine (0.1 μg/mL; Invitrogen, Paisley, UK) to arrest cells in metaphase. To observe mitotic cells, PBMCs are permeabilised and fixed by adding Intraprep (50 μL; Beckman Coulter, France), and stained with anti-phospho-histone 3 (0.26 ng/L; #9701; Cell Signalling, Danvers, Mass.) and propidium iodide (1 mg/mL; Sigma-Aldrich, Poole, UK) as previously described (Muehlbauer P. A. and Schuler M. J., Mutation Research, 2003, 537:117-130). Fluorescence is observed using an ATTUNE flow cytometer (Invitrogen, Paisley, UK), gating for lymphocytes.

The mark [4] stands for this setting: read-out: IC50 Values for Inhibition of Cytokine Release PBMCs IFNγ.
The mark [5] stands for this setting: read-out: IC50 Values for Inhibition of Cytokine Release PBMCs IL-2.

For `COc1cc(CO)cc(Nc2cc(Oc3ccc(NC(=O)Nc4cc(C(C)(C)C)cc(C(N)=O)c4OC)c4ccccc34)ccn2)c1` [84(g), 5-tert-Butyl-3-[[4-[[2-[3-(hydroxymethyl)-5-methoxyanilino]-4-pyridyl]oxy]-1-naphthyl]carbamoylamino]-2-methoxybenzamide], the IC50 in the test with PBMCs [1] was 0.7 nM; in the test with PBMCs [2] (setting [4]) it was 1.3 nM; with PBMCs [2] (setting [5]), 43.5 nM. The same compound returned an inhibition at 5 µg/mL with PBMCs [3] of 84.6%.
For `CNC(=O)c1cc(C(C)(C)C)cc(NC(=O)Nc2ccc(Oc3ccnc(Nc4cc(CO)cc(OC)c4)c3)c3ccccc23)c1OC` [84(h), 5-tert-Butyl-3-[[4-[[2-[3-(hydroxymethyl)-5-methoxyanilino]-4-pyridyl]oxy]-1-naphthyl]carbamoylamino]-2-methoxy-N-methyl-benzamide] the same measures were 0.7 nM, 1.7 nM, 51.3 nM and 87%.
In the case of `COc1cc(Nc2cc(Oc3ccc(NC(=O)Nc4cc(C(C)(C)C)cc(NS(C)(=O)=O)c4OC)c4ccccc34)ccn2)cc(C(=O)NCC(=O)N2CCOCC2)c1` [85(a), 3-[[4-[[4-[[5-tert-Butyl-3-(methanesulfonamido)-2-methoxyphenyl]-carbamoylamino]-1-naphthyl]oxy]-2-pyridyl]amino]-5-methoxy-N-(2-morpholino-2-oxo-ethyl)benzamide], the IC50 is 0.8 nM in the test with PBMCs [1], 11.8 nM with PBMCs [2] (setting [4]) and 53.8 nM in the test with PBMCs [2] (setting [5]). In addition, testing at 5 µg/mL with PBMCs [3] gave an inhibition of 46.3%.
With `C#Cc1cc(Nc2cc(Oc3ccc(NC(=O)Nc4cc(C(C)(C)C)cc(CO)c4OC)c4ccccc34)ccn2)cc(C(=O)NCCOCCOCCOC)c1` [85(b), 3-[[4-[[4-[[5-tert-Butyl-3-(hydroxymethyl)-2-methoxyphenyl]-carbamoylamino]-1-naphthyl]oxy]-2-pyridyl]amino]-5-ethynyl-N-[2-[2-(2-methoxyethoxy)ethoxy]ethyl]benzamide], the half-inhibitory concentration (IC50) in the test with PBMCs [1] amounted to 1.5 nM; in the test with PBMCs [2] (setting [4]) it was 16.2 nM; in the test with PBMCs [2] (setting [5]), 123 nM. For the same compound, 5 µg/mL produced 25.3% inhibition in the test with PBMCs [3].
For the compound `C#Cc1cc(Nc2cc(Oc3ccc(NC(=O)Nc4cc(C(C)(C)C)cc(NS(C)(=O)=O)c4OC)c4ccccc34)ccn2)cc(C(=O)NCCCN2CCOCC2)c1` [85(d), 3-[[4-[[4-[[5-tert-Butyl-3-(methanesulfonamido)-2-methoxyphenyl]-carbamoylamino]-1-naphthyl]oxy]-2-pyridyl]amino]-5-ethynyl-N-(3-morpholinopropyl)-benzamide], the IC50 in the test with PBMCs [1] stood at 2.1 nM; in the test on PBMCs [2] (setting [4]) it was 15.4 nM; in the test on PBMCs [2] (setting [5]), 94.3 nM. Besides, the inhibition at 5 µg/mL with PBMCs [3] turned out to be 33.2%.
`COc1cc(Nc2cc(Oc3ccc(NC(=O)Nc4cc(C(C)(C)C)cc(NS(C)(=O)=O)c4OC)c4ccccc34)ccn2)cc(C(=O)NCC(C)(C)N2CCOCC2)c1` [85(h), 3-[[4-[[4-[[5-tert-Butyl-3-(methanesulfonamido)-2-methoxyphenyl]-carbamoylamino]-1-naphthyl]oxy]-2-pyridyl]amino]-5-methoxy-N-(2-methyl-2-morpholinopropyl)benzamide]: the IC50 in the test with PBMCs [1] was 2.2 nM; in the test with PBMCs [2] (setting [4]), 23 nM; in the test with PBMCs [2] (setting [5]) it was 150 nM. The compound further registered an inhibition at 5 µg/mL with PBMCs [3] of 27.5%.
For `COc1cc(Nc2cc(Oc3ccc(NC(=O)Nc4cc(C(C)(C)C)cc(NS(C)(=O)=O)c4OC)c4ccccc34)ccn2)cc(C(=O)NCCN2CCS(=O)(=O)CC2)c1` [85(k), 3-[[4-[[4-[[5-tert-Butyl-3-(methanesulfonamido)-2-methoxyphenyl]-carbamoylamino]-1-naphthyl]oxy]-2-pyridyl]amino]-N-[2-(1,1-dioxo-1,4-thiazinan-4-yl)ethyl]-5-methoxybenzamide], the IC50 in the test on PBMCs [1] was found to be 1.7 nM; in the test on PBMCs [2] (setting [4]), 9.3 nM; in the test on PBMCs [2] (setting [5]), 57.1 nM. Besides, at 5 µg/mL the inhibition in the test with PBMCs [3] was 41%.
Regarding `C#Cc1cc(Nc2nccc(Oc3ccc(NC(=O)Nc4cc(C(C)(C)C)cc(NS(C)(=O)=O)c4OC)c4ccccc34)n2)cc(C(=O)NCCN2CCOCC2)c1` [Example 1, 3-((4-((4-(3-(5-(tert-Butyl)-2-methoxy-3-(methylsulfonamido)phenyl)ureido)naphthalen-1-yl)oxy)pyrimidin-2-yl)amino)-5-ethynyl-N-(2-morpholinoethyl)benzamide], the IC50 was found to be 1.4 nM in the test on PBMCs [1], 10.4 nM in the test with PBMCs [2] (setting [4]) and 112 nM in the test on PBMCs [2] (setting [5]). The same compound gave an inhibition at 5 µg/mL in the test with PBMCs [3] of 22.1%.
`C#Cc1cc(Nc2nccc(Oc3ccc(NC(=O)Nc4cc(F)cc(N5CCOCC5)c4)c4ccccc34)n2)cc(C(=O)NCCN2CCOCC2)c1` [Example 2, 3-Ethynyl-5-((4-((4-(3-(3-fluoro-5-morpholinophenyl)ureido)naphthalen-1-yl)oxy)-pyrimidin-2-yl)amino)-N-(2-morpholinoethyl)benzamide]: the IC50 in the test on PBMCs [1] amounted to 142 nM; in the test with PBMCs [2] (setting [4]), 35.7 nM. In the test with PBMCs [3], this compound registered an inhibition at 5 µg/mL of 4%.
On to `COc1cc(Nc2nccc(Oc3ccc(NC(=O)Nc4cc(C(C)(C)C)cc(NS(C)(=O)=O)c4OC)c4ccccc34)n2)cc(C(=O)NCCN2CCOCC2)c1` [Example 6, 3-((4-((4-(3-(5-(tert-Butyl)-2-methoxy-3-(methylsulfonamido)phenyl)ureido)naphthalen-1-yl)oxy)pyrimidin-2-yl)amino)-5-methoxy-N-(2-morpholinoethyl)benzamide], for which the IC50 in the test on PBMCs [1] was 0.8 nM; in the test on PBMCs [2] (setting [4]), 9.3 nM; in the test on PBMCs [2] (setting [5]), 89.9 nM. The inhibition at 5 µg/mL with PBMCs [3] came to 41.7%.
`CNC(=O)c1cc(C(C)(C)C)cc(NC(=O)Nc2ccc(Oc3ccnc(Nc4cc(OC)cc(OCCOCCOCCOC)c4)n3)c3ccccc23)c1OC` [Example 13, 5-(tert-Butyl)-2-methoxy-3-(3-(4-((2-((3-methoxy-5-(2-(2-(2-methoxyethoxy)ethoxy)-ethoxy)phenyl)amino)pyrimidin-4-yl)oxy)naphthalen-1-yl)ureido)-N-methylbenzamide]: the IC50 in the test with PBMCs [1] amounted to 1.3 nM; with PBMCs [2] (setting [4]) it was 4.6 nM; in the test with PBMCs [2] (setting [5]) it was 57.4 nM. This compound yielded an inhibition at 5 µg/mL with PBMCs [3] of 46.1%.
With `COc1cc(Nc2nccc(Oc3ccc(NC(=O)Nc4cc(C(C)(C)C)cc(NS(C)(=O)=O)c4OC)c4ccccc34)n2)cc(OCCOCCOCCN(C)C)c1` [Example 15, N-(5-(tert-Butyl)-3-(3-(4-((2-((3-(2-(2-(2-(dimethylamino)ethoxy)ethoxy)ethoxy)-5-methoxyphenyl)amino)pyrimidin-4-yl)oxy)naphthalen-1-yl)ureido)-2-methoxyphenyl)-methanesulfonamide], the IC50 in the test on PBMCs [1] was determined as 0.9 nM. Moreover, in the test with PBMCs [3], at 5 µg/mL the inhibition was 97.5%.
For `COc1cc(Nc2nccc(Oc3ccc(NC(=O)Nc4cc(C(C)(C)C)cc(NS(C)(=O)=O)c4OC)c4ccccc34)n2)cc(OCCOCCOCCN2CCOCC2)c1` [Example 18, N-(5-(tert-Butyl)-2-methoxy-3-(3-(4-((2-((3-methoxy-5-(2-(2-(2-morpholinoethoxy)ethoxy)-ethoxy)phenyl)amino)pyrimidin-4-yl)oxy)naphthalen-1-yl)ureido)phenyl)methanesulfonamide] the same measures were 1 nM and 92.7%.
`COCCOCCOCCOc1cc(Nc2nccc(Oc3ccc(NC(=O)Nc4cc(C(C)(C)C)cc(C(=O)NCC(=O)OC)c4OC)c4ccccc34)n2)cc(OC)c1` [Example 37, Methyl 2-(5-(tert-butyl)-2-methoxy-3-(3-(4-((2-((3-methoxy-5-(2-(2-(2-methoxyethoxy)-ethoxy)ethoxy)phenyl)amino)pyrimidin-4-yl)oxy)naphthalen-1-yl)ureido)benzamido)-acetate]: the IC50 with PBMCs [1] amounted to 2.2 nM. In the test on PBMCs [3], this compound yielded an inhibition at 5 µg/mL of 45.9%.
In the case of `COCCOCCOCCOc1cc(Nc2cc(Oc3ccc(NC(=O)Nc4cc(C(C)(C)C)cc(C(=O)NCCN(C)C)c4OC)c4ccccc34)ccn2)cc(OC)c1` [Example 76, 5-(tert-Butyl)-N-(2-(dimethylamino)ethyl)-2-methoxy-3-(3-(4-((2-((3-methoxy-5-(2-(2-(2-methoxyethoxy)ethoxy)ethoxy)phenyl)amino)pyridin-4-yl)oxy)naphthalen-1-yl)ureido)-benzamide], the IC50 in the test on PBMCs [1] came to 1.9 nM. The compound also displayed an inhibition at 5 µg/mL with PBMCs [3] of 91.3%.
`COCCOCCOCCS(=O)(=O)c1cc(Nc2cc(Oc3ccc(NC(=O)Nc4cc(C(C)(C)C)cc(NS(C)(=O)=O)c4OC)c4ccccc34)ccn2)cc(OC)c1` [Example 85(y), 1-[5-tert-Butyl-3-(methanesulfonamido)-2-methoxyphenyl]-3-[4-[2-[3-methoxy-5-[2-[2-(2-methoxyethoxy)ethoxy]ethylsulfonyl]anilino]pyridin-4-yl]oxy-1-naphthyl]urea]: the IC50 in the test with PBMCs [1] amounted to 1.7 nM. In the test with PBMCs [3], this compound yielded an inhibition at 5 µg/mL of 20.1%.
